# Reference: ChEMBL document CHEMBL1201862, “PubChem BioAssay data set” (2004)
# Several values for one entry are separate records, joined by “and”; a condition that tells them apart may be missing. Equal entries are not always repeated.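 The compound was tested at five concentrations on cells cultured in 96-well plates, with a 48-hour exposure period. GI50 is the concentration that inhibits growth by half.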 Activity calls are given as the source filed them. Cut-off read from the data, not from the text of the source: active = GI50 up to about 1.1 µM and inactive = higher. Starred links: 1 amine or outer side, 2 acyl side, 3 side chain; linkers in the order of their positions; H or OH if unused. Non-standard residues stand in square brackets, D forms with d. Residues, ends and D or L forms follow the SMILES beside them. X41 = CSCCCC(N[*:1])C(=O)[*:2]
# What was measured:
# Assay in all cases: inhibition of tumour cell growth, NCI panel, 48 h
# MOLT-4 = test system: MOLT-4
# MCF7 = test system: MCF7
# U-251 = test system: U-251
# SNB-19 = test system: SNB-19
# SK-MEL-2 = test system: SK-MEL-2
# M14 = test system: M14
# CCRF-CEM = test system: CCRF-CEM
# UACC-62 = test system: UACC-62
# HCC 2998 = test system: HCC 2998
# RXF 393 = test system: RXF 393
# NCI-H460 = test system: NCI-H460
# HCT-15 = test system: HCT-15
# SF-539 = test system: SF-539
# NCI-H522 = test system: NCI-H522
# HT-29 = test system: HT-29
# LOX IMVI = test system: LOX IMVI
# SF-268 = test system: SF-268
# Hs-578T = test system: Hs-578T
Compound,GI50 (MOLT-4),GI50 (MCF7),GI50 (U-251),GI50 (SNB-19),GI50 (SK-MEL-2),GI50 (M14),GI50 (CCRF-CEM),GI50 (UACC-62),GI50 (HCC 2998),GI50 (RXF 393),GI50 (NCI-H460),GI50 (HCT-15) [µM],GI50 (SF-539),GI50 (NCI-H522),GI50 (HT-29),GI50 (LOX IMVI),GI50 (SF-268),GI50 (Hs-578T)
COC(=O)C1=C2SCc3cccc(c3)CSC3=C(C(=O)OC)SC(=C(S2)S1)S3,> 100 µM (inactive),> 100 µM (inactive),40.2 µM (inactive),> 100 µM (inactive),32.7 µM (inactive),82.6 µM (inactive),> 100 µM (inactive),> 100 µM (inactive),> 100 µM (inactive),> 100 µM (inactive),> 100 µM (inactive),–,–,–,–,–,–,–
CC(C)(C)Cc1cc(O)ccc1O,36.4 µM (inactive),74.8 µM (inactive),43.5 µM (inactive),49.9 µM (inactive),–,46.2 µM (inactive),26.5 µM (inactive),> 100 µM (inactive),51.9 µM (inactive),98.6 µM (inactive),63.4 µM (inactive),34.7,70.8 µM (inactive),27 µM (inactive),> 100 µM (inactive),60.3 µM (inactive),87.9 µM (inactive),–
CSCCCC(NC(=O)CNC(=O)C1CCCN1C(=O)C(Cc1ccc(O)cc1)NC(=O)C(Cc1ccccc1)NC(=O)C(CCCNC(=N)N)NC(=O)C(CC(=O)O)NC(=O)C1CCCN1C(=O)C(CC(=O)O)NC(=O)C1CCCN1C(=O)C1CCCN1C(=O)CN)C(N)=O (configuration not stated) (H-GPPDPDRFYPG[X41]-NH2; configuration not given here),> 50 µM (inactive),> 50 µM (inactive),> 50 µM (inactive),> 50 µM (inactive),> 50 µM (inactive),> 50 µM (inactive),> 50 µM (inactive),> 50 µM (inactive),–,–,–,> 50,> 50 µM (inactive),> 50 µM (inactive),> 50 µM (inactive),> 50 µM (inactive),> 50 µM (inactive),> 50 µM (inactive)
Clc1ccc(/C=C/c2nc(-c3ccccc3)cn3c2nc2ccccc23)cc1Cl,46.9 µM (inactive),34.8 µM (inactive),42 µM (inactive),59.6 µM (inactive),> 100 µM (inactive),56.4 µM (inactive),20.1 µM (inactive),> 100 µM (inactive),43.5 µM (inactive),50.7 µM (inactive),32.7 µM (inactive),34.3,> 100 µM (inactive),–,37.3 µM (inactive),59.8 µM (inactive),59 µM (inactive),–
CC1OC(OC23C(=O)CC(C)(O)CC2(O)C=CC2=C3C(=O)c3ccc(C4CC(OC5CCC(OC6CC(O)C(O)C(C)O6)C(C)O5)C(O)C(C)O4)c(O)c3C2=O)CCC1O (configuration not stated),5.71 µM (inactive),–,16 µM (inactive) and 17.1 µM (inactive),–,16.7 µM (inactive) and 16.3 µM (inactive),18.2 µM (inactive) and 13.8 µM (inactive),6.65 µM (inactive),13.8 µM (inactive) and 16.3 µM (inactive),13.9 µM (inactive) and 16.2 µM (inactive),–,19.4 µM (inactive) and 17.6 µM (inactive),–,17.7 µM (inactive) and 17.3 µM (inactive),1.94 µM (inactive) and 2.05 µM (inactive),12.8 µM (inactive) and 19.5 µM (inactive),–,17 µM (inactive) and 16.4 µM (inactive),–
Cc1ccc2[nH]c(=O)c(-c3cnc(O)nn3)c(O)c2c1,5.06 µM (inactive),36.9 µM (inactive),> 100 µM (inactive),–,45 µM (inactive),> 100 µM (inactive),> 100 µM (inactive),26.4 µM (inactive),–,17.2 µM (inactive),> 100 µM (inactive),> 100,> 100 µM (inactive),–,> 100 µM (inactive),> 100 µM (inactive),> 100 µM (inactive),> 100 µM (inactive)
COC(=O)[C@H](C)N1C(=O)N[C@@H](C(C)C)C1=O,> 100 µM (inactive),> 100 µM (inactive),> 100 µM (inactive),> 100 µM (inactive),> 100 µM (inactive),> 100 µM (inactive),> 100 µM (inactive),> 100 µM (inactive),> 100 µM (inactive),> 100 µM (inactive),> 100 µM (inactive),> 100,> 100 µM (inactive),> 100 µM (inactive),> 100 µM (inactive),> 100 µM (inactive),–,–
CN1CCN(Cc2ccccc2)CC1CC#N (configuration not stated),> 100 µM (inactive),> 100 µM (inactive),> 100 µM (inactive),> 100 µM (inactive),–,–,> 100 µM (inactive),> 100 µM (inactive),> 100 µM (inactive),> 100 µM (inactive),> 100 µM (inactive),> 100,> 100 µM (inactive),–,> 100 µM (inactive),> 100 µM (inactive),> 100 µM (inactive),–
Cc1cc2[nH]c3c(C#N)c(-c4ccccc4)c(/C=N/c4ccc(F)cc4)c(=O)n3c2cc1C,–,86.9 µM (inactive),> 100 µM (inactive),0.513 µM (active),> 100 µM (inactive),> 100 µM (inactive),> 100 µM (inactive),–,> 100 µM (inactive),91.2 µM (inactive),> 100 µM (inactive),> 100,> 100 µM (inactive),45.5 µM (inactive),–,> 100 µM (inactive),99.5 µM (inactive),–
CN(C)c1ccc(/C=N/NC2=N/C(=C\c3ccco3)C(=O)N2)cc1,> 100 µM (inactive),–,> 100 µM (inactive),> 100 µM (inactive),> 100 µM (inactive),> 100 µM (inactive),> 100 µM (inactive),> 100 µM (inactive),–,> 100 µM (inactive),> 100 µM (inactive),> 100,> 100 µM (inactive),> 100 µM (inactive),> 100 µM (inactive),> 100 µM (inactive),> 100 µM (inactive),> 100 µM (inactive)
Clc1ccc(-c2nn3c(C45CC6CC(CC(C6)C4)C5)nnc3s2)cc1,> 100 µM (inactive),–,> 100 µM (inactive),> 100 µM (inactive),> 100 µM (inactive),> 100 µM (inactive),> 100 µM (inactive),> 100 µM (inactive),> 100 µM (inactive),> 100 µM (inactive),> 100 µM (inactive),> 100,> 100 µM (inactive),> 100 µM (inactive),> 100 µM (inactive),> 100 µM (inactive),> 100 µM (inactive),> 100 µM (inactive)
O=C(Cn1c(=O)ccn(C2OC(CO)C(O)C2F)c1=O)c1ccc(F)cc1 (configuration not stated),> 100 µM (inactive),> 100 µM (inactive),> 100 µM (inactive),> 100 µM (inactive),–,–,> 100 µM (inactive),> 100 µM (inactive),–,> 100 µM (inactive),> 100 µM (inactive),> 100,> 100 µM (inactive),> 100 µM (inactive),> 100 µM (inactive),> 100 µM (inactive),> 100 µM (inactive),> 100 µM (inactive)
CC1=CCS(=O)(=O)C1C(O)C1=C(C)CCCC1(C)C (configuration not stated),51.2 µM (inactive),50.8 µM (inactive),56.8 µM (inactive),> 100 µM (inactive),> 100 µM (inactive),69.2 µM (inactive),71.3 µM (inactive),87.1 µM (inactive),> 100 µM (inactive),> 100 µM (inactive),–,> 100,> 100 µM (inactive),58.6 µM (inactive),> 100 µM (inactive),62.2 µM (inactive),–,–
